Measured values: patent publication US7994209B2, “3-phenoxymethylpyrrolidine compounds” (Theravance, Inc., priority 2009, dated 2011)

What was measured:
[1] = biological target: hNET (Homo sapiens, UniProt P23975); test: hNET membrane radioligand binding assay (3H-nisoxetine), Assay 1
[2] = biological target: hSERT (Homo sapiens, UniProt P31645); test: hSERT membrane radioligand binding assay (3H-citalopram), Assay 1; settings: SERT pKi, hSERT HEK-293 membranes, 1.0 nM 3H-citalopram; values given as lower bounds
Sequence of hSERT (P31645 whole entry): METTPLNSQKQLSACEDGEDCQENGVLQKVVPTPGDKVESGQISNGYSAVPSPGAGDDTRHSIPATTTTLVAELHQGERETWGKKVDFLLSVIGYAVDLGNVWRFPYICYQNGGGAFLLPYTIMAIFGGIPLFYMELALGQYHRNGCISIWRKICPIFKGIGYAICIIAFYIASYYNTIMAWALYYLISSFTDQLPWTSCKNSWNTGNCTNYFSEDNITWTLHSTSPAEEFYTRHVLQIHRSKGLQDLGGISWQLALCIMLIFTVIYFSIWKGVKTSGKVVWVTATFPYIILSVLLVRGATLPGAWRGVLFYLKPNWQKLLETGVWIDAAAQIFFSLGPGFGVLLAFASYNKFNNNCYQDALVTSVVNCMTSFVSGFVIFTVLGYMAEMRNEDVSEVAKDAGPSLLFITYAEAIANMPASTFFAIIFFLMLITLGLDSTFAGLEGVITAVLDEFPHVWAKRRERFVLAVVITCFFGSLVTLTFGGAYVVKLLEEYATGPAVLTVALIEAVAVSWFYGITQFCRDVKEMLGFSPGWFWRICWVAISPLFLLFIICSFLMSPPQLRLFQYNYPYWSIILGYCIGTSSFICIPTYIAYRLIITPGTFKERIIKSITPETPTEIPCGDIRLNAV

Sequence of hNET (P23975 whole entry): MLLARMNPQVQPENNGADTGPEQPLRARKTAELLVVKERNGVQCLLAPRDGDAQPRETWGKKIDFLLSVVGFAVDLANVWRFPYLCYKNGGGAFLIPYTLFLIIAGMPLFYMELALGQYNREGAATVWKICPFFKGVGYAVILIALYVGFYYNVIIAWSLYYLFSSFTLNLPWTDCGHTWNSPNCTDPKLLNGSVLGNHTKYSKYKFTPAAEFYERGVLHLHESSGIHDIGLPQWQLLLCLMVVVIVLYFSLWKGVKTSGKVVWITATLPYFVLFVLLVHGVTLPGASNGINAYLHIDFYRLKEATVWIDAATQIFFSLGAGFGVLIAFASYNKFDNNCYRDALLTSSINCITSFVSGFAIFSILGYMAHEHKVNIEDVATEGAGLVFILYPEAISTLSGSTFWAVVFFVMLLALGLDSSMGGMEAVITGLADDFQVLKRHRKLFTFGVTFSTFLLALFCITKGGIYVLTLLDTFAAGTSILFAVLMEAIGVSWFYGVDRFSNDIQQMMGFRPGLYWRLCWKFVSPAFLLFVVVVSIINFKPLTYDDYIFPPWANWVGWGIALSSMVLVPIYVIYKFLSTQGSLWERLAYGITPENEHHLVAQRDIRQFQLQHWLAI

SMILES: CC[C@@H](Oc1ccc(Cl)cc1)[C@@H]1CCNC1 [Example 2-3, (R)-3-[(R)-1-(4-Chlorophenoxy)propyl]pyrrolidine]
- Ki [1]: ≤ 100 nM
- Ki [2]: ≤ 10 nM

SMILES: CC[C@H](Oc1cccc(F)c1)[C@H]1CCNC1 [Example 2-9, (S)-3-[(S)-1-(3-Fluorophenoxy)propyl]pyrrolidine]
- Ki [1]: ≤ 10 nM
- Ki [2]: ≤ 100 nM

SMILES: CC[C@H](Oc1ccc(F)cc1)[C@H]1CCNC1 [Example 2-12, (S)-3-[(S)-1-(4-Fluorophenoxy)propyl]pyrrolidine]
- Ki [1]: ≤ 100 nM
- Ki [2]: ≤ 100 nM

SMILES: CC[C@H](Oc1cccc(C(F)(F)F)c1)[C@H]1CCNC1 [Example 2-16, (S)-3-[(S)-1-(3-Trifluoromethylphenoxy)propyl]pyrrolidine]
- Ki [1]: ≤ 100 nM
- Ki [2]: ≤ 10 nM

SMILES: CC[C@H](Oc1ccc(C(F)(F)F)cc1)[C@H]1CCNC1 [Example 2-17, (S)-3-[(S)-1-(4-Trifluoromethylphenoxy)propyl]pyrrolidine]
- Ki [1]: ≤ 100 nM
- Ki [2]: ≤ 10 nM

SMILES: CC[C@@H](Oc1c(F)cccc1Cl)[C@H]1CCNC1 [Example 2-26, (S)-3-[(R)-1-(2-Chloro-6-fluorophenoxy)propyl]pyrrolidine]
- Ki [1]: ≤ 10 nM
- Ki [2]: ≤ 100 nM

SMILES: CC[C@H](Oc1cccc(Cl)c1Cl)[C@@H]1CCNC1 [Example 2-30, (R)-3-[(S)-1-(2,3-Dichlorophenoxy)propyl]pyrrolidine]
- Ki [1]: ≤ 100 nM
- Ki [2]: ≤ 10 nM

SMILES: CC[C@@H](Oc1ccc(Cl)cc1Cl)[C@@H]1CCNC1 [Example 2-33, (R)-3-[(R)-1-(2,4-Dichlorophenoxy)propyl]pyrrolidine]
- Ki [1]: ≤ 100 nM
- Ki [2]: ≤ 10 nM

SMILES: CC[C@@H](Oc1cc(F)cc(F)c1Cl)[C@H]1CCNC1 [Example 2-36, (S)-3-[(R)-1-(2-Chloro-3,5-difluorophenoxy)propyl]pyrrolidine]
- Ki [1]: ≤ 100 nM
- Ki [2]: ≤ 100 nM

SMILES: CC[C@H](Oc1ccccc1F)[C@H]1CCNC1 [Example 2-46, (S)-3-[(S)-1-(2-Fluorophenoxy)propyl]pyrrolidine]
- Ki [1]: ≤ 10 nM
- Ki [2]: ≤ 100 nM

SMILES: CC[C@H](Oc1c(F)cccc1F)[C@H]1CCNC1 [Example 2-49, (S)-3-[(S)-1-(2,6-Difluorophenoxy)propyl]pyrrolidine]
- Ki [1]: ≤ 10 nM
- Ki [2]: ≤ 100 nM

SMILES: CC[C@H](Oc1ccc(F)c(F)c1F)[C@H]1CCNC1 [Example 2-50, (S)-3-[(S)-1-(2,3,4-Trifluorophenoxy)propyl]pyrrolidine]
- Ki [1]: ≤ 100 nM
- Ki [2]: ≤ 10 nM

SMILES: CC[C@@H](Oc1c(F)ccc(Cl)c1F)[C@H]1CCNC1 [Example 2-53, (S)-3-[(R)-1-(3-Chloro-2,6-difluorophenoxy)propyl]pyrrolidine]
- Ki [1]: ≤ 10 nM
- Ki [2]: ≤ 100 nM

SMILES: CC[C@@H](Oc1c(Cl)ccc(C)c1F)[C@H]1CCNC1 [Example 2-54, (S)-3-[(R)-1-(6-Chloro-2-fluoro-3-methylphenoxy)propyl]pyrrolidine]
- Ki [1]: ≤ 10 nM
- Ki [2]: ≤ 100 nM

SMILES: CC[C@H](Oc1c(F)c(F)cc(F)c1F)[C@H]1CCNC1 [Example 2-56, (S)-3-[(S)-1-(2,3,5,6-Tetrafluorophenoxy)propyl]pyrrolidine]
- Ki [1]: ≤ 10 nM
- Ki [2]: ≤ 100 nM

SMILES: CC[C@@H](Oc1ccc(Cl)cc1C)[C@H]1CCNC1 [Example 2-59, (S)-3-[(R)-1-(4-Chloro-2-methylphenoxy)propyl]pyrrolidine]
- Ki [1]: ≤ 100 nM
- Ki [2]: ≤ 10 nM

SMILES: CC[C@H](Oc1ccc(Cl)cc1C)[C@@H]1CCNC1 [Example 2-61, (R)-3-[(S)-1-(4-Chloro-2-methylphenoxy)propyl]pyrrolidine]
- Ki [1]: ≤ 100 nM
- Ki [2]: ≤ 10 nM

SMILES: CC[C@@H](Oc1ccccc1C)[C@H]1CCNC1 [Example 2-63, (S)-3-((R)-1-o-Tolyloxypropyl)pyrrolidine]
- Ki [1]: ≤ 100 nM
- Ki [2]: ≤ 100 nM

SMILES: CC[C@H](Oc1ccccc1OC)[C@H]1CCNC1 [Example 2-67, (S)-3-[(S)-1-(2-Methoxyphenoxy)propyl]pyrrolidine]
- Ki [1]: ≤ 10 nM
- Ki [2]: ≤ 100 nM

SMILES: CC[C@H](Oc1cccc(Cl)c1C(F)(F)F)[C@@H]1CCNC1 [Example 2-73, (R)-3-[(S)-1-(3-Chloro-2-trifluoromethylphenoxy)propyl]pyrrolidine]
- Ki [1]: ≤ 100 nM
- Ki [2]: ≤ 10 nM

SMILES: CCC[C@H](Oc1ccc(Cl)cc1)[C@@H]1CCNC1 [Example 4-3, (R)-3-[(S)-1-(4-Chlorophenoxy)butyl]pyrrolidine]
- Ki [1]: ≤ 100 nM
- Ki [2]: ≤ 10 nM

SMILES: CCC[C@@H](Oc1ccc(Cl)cc1)[C@@H]1CCNC1 [Example 4-4, (R)-3-[(R)-1-(4-Chlorophenoxy)butyl]pyrrolidine]
- Ki [1]: ≤ 100 nM
- Ki [2]: ≤ 10 nM

SMILES: CCC[C@H](Oc1cc(Cl)cc(Cl)c1)[C@@H]1CCNC1 [Example 4-8, (R)-3-[(S)-1-(3,5-Dichlorophenoxy)butyl]pyrrolidine]
- Ki [1]: ≤ 100 nM
- Ki [2]: ≤ 10 nM

SMILES: CCC[C@H](Oc1ccccc1Cl)[C@@H]1CCNC1 [Example 4-21, (R)-3-[(S)-1-(2-Chlorophenoxy)butyl]pyrrolidine]
- Ki [1]: ≤ 100 nM
- Ki [2]: ≤ 100 nM

SMILES: CCC[C@@H](Oc1ccccc1Cl)[C@@H]1CCNC1 [Example 4-22, (R)-3-[(R)-1-(2-Chlorophenoxy)butyl]pyrrolidine]
- Ki [1]: ≤ 10 nM
- Ki [2]: ≤ 100 nM

SMILES: CCC[C@H](Oc1cccc(Cl)c1Cl)[C@@H]1CCNC1 [Example 4-24, (R)-3-[(S)-1-(2,3-Dichlorophenoxy)butyl]pyrrolidine]
- Ki [1]: ≤ 100 nM
- Ki [2]: ≤ 10 nM

SMILES: CCC[C@@H](Oc1ccc(Cl)cc1Cl)[C@H]1CCNC1 [Example 4-29, (S)-3-[(R)-1-(2,4-Dichlorophenoxy)butyl]pyrrolidine]
- Ki [1]: ≤ 100 nM
- Ki [2]: ≤ 10 nM

SMILES: CCC[C@H](Oc1ccc(Cl)cc1Cl)[C@@H]1CCNC1 [Example 4-30, (R)-3-[(S)-1-(2,4-Dichlorophenoxy)butyl]pyrrolidine]
- Ki [1]: ≤ 100 nM
- Ki [2]: ≤ 10 nM

SMILES: CCC[C@@H](Oc1ccc(Cl)cc1Cl)[C@@H]1CCNC1 [Example 4-31, (R)-3-[(R)-1-(2,4-Dichlorophenoxy)butyl]pyrrolidine]
- Ki [1]: ≤ 100 nM
- Ki [2]: ≤ 10 nM

SMILES: CCC[C@@H](Oc1c(Cl)cccc1Cl)[C@H]1CCNC1 [Example 4-34, (S)-3-[(R)-1-(2,6-Dichlorophenoxy)butyl]pyrrolidine]
- Ki [1]: ≤ 10 nM
- Ki [2]: ≤ 100 nM

SMILES: CCC[C@H](Oc1c(Cl)cccc1Cl)[C@@H]1CCNC1 [Example 4-35, (R)-3-[(S)-1-(2,6-Dichlorophenoxy)butyl]pyrrolidine]
- Ki [1]: ≤ 100 nM
- Ki [2]: ≤ 100 nM

SMILES: CCC[C@@H](Oc1c(Cl)cccc1Cl)[C@@H]1CCNC1 [Example 4-36, (R)-3-[(R)-1-(2,6-Dichlorophenoxy)butyl]pyrrolidine]
- Ki [1]: ≤ 100 nM
- Ki [2]: ≤ 100 nM

SMILES: CCC[C@H](Oc1ccc(C)cc1Cl)[C@@H]1CCNC1 [Example 4-38, (R)-3-[(S)-1-(2-Chloro-4-methylphenoxy)butyl]pyrrolidine]
- Ki [1]: ≤ 100 nM
- Ki [2]: ≤ 10 nM

SMILES: CCC[C@H](Oc1cccc(Cl)c1C)[C@@H]1CCNC1 [Example 4-56, (R)-3-[(S)-1-(3-Chloro-2-methylphenoxy)butyl]pyrrolidine]
- Ki [1]: ≤ 100 nM
- Ki [2]: ≤ 10 nM

SMILES: CCC[C@H](Oc1ccc(Cl)cc1C)[C@@H]1CCNC1 [Example 4-59, (R)-3-[(S)-1-(4-Chloro-2-methylphenoxy)butyl]pyrrolidine]
- Ki [1]: ≤ 10 nM
- Ki [2]: ≤ 10 nM

SMILES: CCC[C@@H](Oc1ccc(Cl)cc1C)[C@H]1CCNC1 [Example 4-60, (S)-3-[(R)-1-(4-Chloro-2-methylphenoxy)butyl]pyrrolidine]
- Ki [1]: ≤ 100 nM
- Ki [2]: ≤ 10 nM

SMILES: CCC[C@H](Oc1ccc(Cl)cc1C(F)(F)F)[C@H]1CCNC1 [Example 4-64, (S)-3-[(S)-1-(4-Chloro-2-trifluoromethylphenoxy)butyl]pyrrolidine]
- Ki [1]: ≤ 10 nM
- Ki [2]: ≤ 10 nM

SMILES: CCC[C@@H](Oc1ccc(Cl)cc1C(F)(F)F)[C@H]1CCNC1 [Example 4-65, (S)-3-[(R)-1-(4-Chloro-2-trifluoromethylphenoxy)butyl]pyrrolidine]
- Ki [1]: ≤ 100 nM
- Ki [2]: ≤ 100 nM

SMILES: CCC[C@H](Oc1ccc(Cl)cc1C(F)(F)F)[C@@H]1CCNC1 [Example 4-66, (R)-3-[(S)-1-(4-Chloro-2-trifluoromethylphenoxy)butyl]pyrrolidine]
- Ki [1]: ≤ 100 nM
- Ki [2]: ≤ 10 nM

SMILES: CCC[C@@H](Oc1ccc(Cl)cc1C(F)(F)F)[C@@H]1CCNC1 [Example 4-67, (R)-3-[(R)-1-(4-Chloro-2-trifluoromethylphenoxy)butyl]pyrrolidine]
- Ki [1]: ≤ 100 nM
- Ki [2]: ≤ 10 nM

SMILES: CCC[C@H](Oc1cccc(Cl)c1C(F)(F)F)[C@H]1CCNC1 [Example 4-68, (S)-3-[(S)-1-(3-Chloro-2-trifluoromethylphenoxy)butyl]pyrrolidine]
- Ki [1]: ≤ 10 nM
- Ki [2]: ≤ 10 nM

SMILES: CCC[C@@H](Oc1cccc(Cl)c1C(F)(F)F)[C@H]1CCNC1 [Example 4-69, (S)-3-[(R)-1-(3-Chloro-2-trifluoromethylphenoxy)butyl]pyrrolidine]
- Ki [1]: ≤ 100 nM
- Ki [2]: ≤ 10 nM

SMILES: CCC[C@H](Oc1cccc(Cl)c1C(F)(F)F)[C@@H]1CCNC1 [Example 4-70, (R)-3-[(S)-1-(3-Chloro-2-trifluoromethylphenoxy)butyl]pyrrolidine]
- Ki [1]: ≤ 100 nM
- Ki [2]: ≤ 10 nM

SMILES: CC(C)[C@H](Oc1ccccc1F)[C@H]1CCNC1 [Example 6-1, (S)-3-[(S)-1-(2-Fluorophenoxy)-2-methylpropyl]pyrrolidine]
- Ki [1]: ≤ 10 nM
- Ki [2]: ≤ 100 nM

SMILES: CC(C)C(Oc1ccccc1F)C1CCNC1 (stereo not shown) [Example 6-2, 3-[1-(2-Fluorophenoxy)-2-methylpropyl]pyrrolidine]
- Ki [1]: ≤ 100 nM
- Ki [2]: ≤ 100 nM

SMILES: CC(C)[C@@H](Oc1ccc(Cl)cc1Cl)[C@H]1CCNC1 [Example 6-22, (S)-3-[(R)-1-(2,4-Dichlorophenoxy)-2-methylpropyl]pyrrolidine]
- Ki [1]: ≤ 100 nM
- Ki [2]: ≤ 10 nM

SMILES: CC(C)C(Oc1c(Cl)cccc1Cl)C1CCNC1 (stereo not shown) [Example 6-27, 3-[1-(2,6-Dichlorophenoxy)-2-methylpropyl]pyrrolidine]
- Ki [1]: ≤ 10 nM
- Ki [2]: ≤ 100 nM
